From patent US9850283B2, “Macrocyclic inhibitors of the PD-1/PD-L1 and CD80(B7-1)/PD-L1 protein/protein interactions” (BRISTOL-MYERS SQUIBB COMPANY, priority 2013, dated 2017)
Read-outs that look alike come from different tables or passages of the source. Positions of bridges follow the written chain, without caps; N, C: chain ends. Non-standard residues stand in square brackets, D forms with d. Residues, ends and D or L forms follow the SMILES beside them. ξ: configuration not given here. Phe(4-guanidino) = N=C(N)Nc1ccc(C[C@H](N)C(=O)O)cc1; Trp(5-Cl) = N[C@@H](Cc1c[nH]c2ccc(Cl)cc12)C(=O)O; Bip = N[C@@H](Cc1ccc(-c2ccccc2)cc1)C(=O)O; Bta = N[C@@H](Cc1csc2ccccc12)C(=O)O; Hyp = O=C(O)[C@@H]1C[C@@H](O)CN1; NMeF = CN[C@@H](Cc1ccccc1)C(=O)O; NMehSer = CN[C@@H](CCO)C(=O)O; NMeNle = CCCC[C@H](NC)C(=O)O; NMeA = CN[C@@H](C)C(=O)O; Orn = NCCC[C@H](N)C(=O)O; Dab = NCC[C@H](N)C(=O)O; Dap = NC[C@H](N)C(=O)O; ξC = NC(CS)C(=O)O; Sar = CNCC(=O)O

Experiments:
[1] = biological target: T1, Human PD-L1/PD-1 (Homo sapiens, UniProt Q9NZQ7); experiment: HTRF PD-1-Ig/PD-L1-His binding assay (human PD-L1); settings: cluster symbol; read-out: HTRF IC50 cluster
T1 construct: made in house; host or cells: HEK293T
T1 sequence (Q9NZQ7 with tags, fused parts or gaps): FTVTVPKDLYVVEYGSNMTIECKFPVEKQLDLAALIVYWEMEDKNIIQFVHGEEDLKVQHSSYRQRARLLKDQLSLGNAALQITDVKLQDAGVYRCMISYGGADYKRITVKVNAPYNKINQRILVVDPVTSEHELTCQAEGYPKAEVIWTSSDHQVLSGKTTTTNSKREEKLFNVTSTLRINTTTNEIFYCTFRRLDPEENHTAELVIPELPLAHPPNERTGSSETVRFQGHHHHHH
How it was run: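 Interaction of Fc-tagged soluble PD-1 with His-tagged soluble PD-L1 is monitored by time-resolved FRET. Donor is europium cryptate anti-Ig (1 nM final) and acceptor is APC anti-His (20 nM final). Assay buffer is dPBS with 0.1% BSA and 0.05% Tween-20.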

[2] = biological target: T2, LK35.2-hPD-L1 cells / PE-labeled PD-1-Ig (Homo sapiens, UniProt Q9NZQ7); experiment: LK35.2-hPD-L1 cell binding high-content screening assay; assay type: cell-based; settings: cluster symbol, read-out: CBA IC50 cluster
T2 construct: expressed in transfected cells; host or cells: LK35.2 mouse B cell line
T2 sequence (Q9NZQ7 19-290): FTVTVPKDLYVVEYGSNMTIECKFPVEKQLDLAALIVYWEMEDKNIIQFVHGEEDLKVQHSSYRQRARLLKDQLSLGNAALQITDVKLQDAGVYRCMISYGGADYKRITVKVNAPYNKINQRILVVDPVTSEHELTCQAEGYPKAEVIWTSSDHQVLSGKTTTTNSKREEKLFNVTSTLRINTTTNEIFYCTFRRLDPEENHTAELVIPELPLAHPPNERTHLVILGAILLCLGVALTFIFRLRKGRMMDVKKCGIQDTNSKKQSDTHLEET
How it was run: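 Using overnight-cultured LK35.2-hPD-L1 mouse B cells, compound was co-incubated with phycoerythrin-tagged human PD-1-Ig (final 1 nM) at 37 °C for one hour. Unbound label was removed by triple dPBS washing prior to high-content image acquisition and analysis.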

[3] = cell binding assay, cell line not given
[4] = cell line of CBA not given (LK35.2-hPD-L1 or 293T-hPD-L1)

| SMILES | IC50 [1] [nM] | IC50 [2, 3] [nM] | IC50 [2, 4] [nM] |
| --- | --- | --- | --- |
| CCCC[C@H]1C(=O)N(C)CC(=O)N[C@@H](CC(N)=O)C(=O)N[C@@H](C(C)C)C(=O)N(C)[C@@H](Cc2ccccc2)C(=O)N[C@@H](Cc2ccc(O)cc2)C(=O)N(C)CC(=O)N[C@@H](Cc2c[nH]c3ccccc23)C(=O)N[C@@H](Cc2ccc(O)cc2)C(=O)N[C@@H](CCCN)C(=O)N[C@H](C(=O)NCC(N)=O)CSCC(=O)N[C@@H](Cc2ccccc2)C(=O)N[C@@H](Cc2ccc(-c3ccccc3)cc2)C(=O)N1C [Example 3611] ({CH2CO}-F[Bip][NMeNle][Sar]NV[NMeF]Y[Sar]WY[Orn]CG-NH2; thioether N-13) | > 30.5 | > 74.3 | – |
| CCCC[C@H]1C(=O)N(C)[C@@H](CCCC)C(=O)N[C@@H](CCCN)C(=O)N[C@H](C(=O)NCC(N)=O)CSCC(=O)N[C@@H](Cc2ccc(O)cc2)C(=O)N(C)[C@@H](C)C(=O)N[C@@H](CC(=O)O)C(=O)N2CCC[C@H]2C(=O)N[C@@H](CN)C(=O)N[C@@H](CC(=O)O)C(=O)N2C[C@H](O)C[C@H]2C(=O)N[C@@H](Cc2c[nH]c3ccccc23)C(=O)N[C@@H](CCN)C(=O)N[C@@H](Cc2csc3ccccc23)C(=O)N1C [Example 1184] ({CH2CO}-Y[NMeA]DP[Dap]D[Hyp]W[Dab][Bta][NMeNle][NMeNle][Orn]CG-NH2; thioether N-14) | 0.385 to 6.74 | – | 0.158 to 4.71 |
| CCCC[C@H]1C(=O)N(C)[C@@H](CCCC)C(=O)N[C@@H](CCCNC(=N)N)C(=O)N[C@H](C(=O)NCC(N)=O)CSCC(=O)N[C@@H](Cc2ccccc2)C(=O)N(C)[C@@H](C)C(=O)N[C@@H](CC(N)=O)C(=O)N2CCC[C@H]2C(=O)N[C@@H](Cc2cnc[nH]2)C(=O)N[C@@H](CC(C)C)C(=O)N(C)CC(=O)N[C@@H](Cc2c[nH]c3ccc(Cl)cc23)C(=O)N[C@@H](CO)C(=O)N[C@@H](Cc2c[nH]c3ccc(Cl)cc23)C(=O)N1C [Example 1024] ({CH2CO}-F[NMeA]NPHL[Sar][Trp(5-Cl)]S[Trp(5-Cl)][NMeNle][NMeNle]RCG-NH2; thioether N-14) | > 30.5 | – | > 74.3 |

More lines, now with the values ahead:

| IC50 [1] [nM] | IC50 [2, 3] [nM] | IC50 [2, 4] [nM] | SMILES |
| --- | --- | --- | --- |
| 6.76 to 30.3 | 0.158 to 4.71 | – | CCCC[C@H]1C(=O)N(C)[C@@H](CCCC)C(=O)N[C@@H](CCCNC(=N)N)C(=O)N[C@H](C(=O)NCC(N)=O)CSCC(=O)N[C@@H](Cc2ccc(O)cc2)C(=O)N(C)[C@@H](C)C(=O)N[C@@H](CC(N)=O)C(=O)N2CCC[C@H]2C(=O)N[C@@H](CN)C(=O)N[C@@H](CCC(N)=O)C(=O)N2C[C@H](O)C[C@H]2C(=O)N[C@@H](Cc2c[nH]c3ccccc23)C(=O)N[C@@H](CO)C(=O)N[C@@H](Cc2csc3ccccc23)C(=O)N1C [Example 6023] ({CH2CO}-Y[NMeA]NP[Dap]Q[Hyp]WS[Bta][NMeNle][NMeNle]RCG-NH2; thioether N-14) |
| 0.385 to 6.74 | 4.78 to 72.9 | – | CCCC[C@H]1C(=O)N(C)[C@@H](CCCC)C(=O)N[C@@H](CC(C)C)C(=O)N[C@H](C(=O)NCC(N)=O)CSCC(=O)N[C@@H](Cc2ccc(O)cc2)C(=O)N(C)[C@@H](C)C(=O)N[C@@H](CC(N)=O)C(=O)N2CCC[C@H]2C(=O)NCC(=O)N[C@@H](CCC(N)=O)C(=O)N2C[C@H](O)C[C@H]2C(=O)N[C@@H](Cc2c[nH]c3ccccc23)C(=O)N[C@@H](CO)C(=O)N[C@@H](Cc2c[nH]c3ccccc23)C(=O)N1C [Example 5127] ({CH2CO}-Y[NMeA]NPGQ[Hyp]WSW[NMeNle][NMeNle]LCG-NH2; thioether N-14) |
| 0.385 to 6.74 | 0.158 to 4.71 | – | CCCC[C@H]1C(=O)N(C)[C@@H](CCOC)C(=O)N[C@@H](CCCNC(=N)N)C(=O)NC(C(=O)NCC(N)=O)CSCC(=O)N[C@@H](Cc2ccc(O)cc2)C(=O)N(C)[C@@H](C)C(=O)N[C@@H](CC(=O)O)C(=O)N2CCC[C@H]2C(=O)N[C@@H](Cc2cnc[nH]2)C(=O)N[C@@H](CC(C)C)C(=O)N2CCC[C@H]2C(=O)N[C@@H](Cc2c[nH]c3ccccc23)C(=O)N[C@@H](CO)C(=O)N[C@@H](Cc2csc3ccccc23)C(=O)N1C (some centres unmarked) [Example 9008] ({CH2CO}-Y[NMeA]DPHLPWS[Bta][NMeNle][NMehSer](Me)R[ξC]G-NH2; thioether N-14) |
| > 30.5 | > 74.3 | – | CCCC[C@H]1C(=O)N(C)[C@@H](CCCC)C(=O)N[C@@H](CCCNC(=N)N)C(=O)N[C@H](C(=O)NCC(N)=O)CSCC(=O)N[C@@H](Cc2ccc(N=C(N)N)cc2)C(=O)N(C)[C@@H](C)C(=O)N[C@@H](CC(N)=O)C(=O)N2CCC[C@H]2C(=O)N[C@@H](Cc2cnc[nH]2)C(=O)N[C@@H](CC(C)C)C(=O)N2C[C@H](O)C[C@H]2C(=O)N[C@@H](Cc2c[nH]c3ccccc23)C(=O)N[C@@H](CO)C(=O)N[C@@H](Cc2c[nH]c3ccccc23)C(=O)N1C [Example 7049] ({CH2CO}-[Phe(4-guanidino)][NMeA]NPHL[Hyp]WSW[NMeNle][NMeNle]RCG-NH2; thioether N-14) |
